{"source": "patent US20250243160A1", "about": "“INDOLE DERIVATIVES FOR TARGETING AUTOPHAGY” (Automera PTE. LTD, priority 2024, published 2025)", "data": [{"system": "p62 puncta", "assay": "p62 puncta immunocytochemistry imaging in HeLa cells", "type": "cell-based", "details": "24 hours treatment, relative to vehicle control (DMSO)", "description": "HeLa cells were seeded in coated 96-well plates (10,000 cells) and allowed to adhere overnight. After 24 hours of treatment with either vehicle (DMSO) or test compounds, the media was discarded, and cells were rinsed with ice-cold 1×PBS before fixation by 4% formaldehyde or paraformaldehyde for 20 min. Cells were then washed with 1×PBS and permeabilized with 0.1% Triton X-100 in PBS for 20 min and blocked with Blocking Buffer in PBS for 1 hour. The cells were incubated thereafter for 1 hour with anti-p62 primary antibody in Blocking Buffer, followed by incubation with secondary antibody for 1 hour. DAPI dye was used to visualize nuclei of fixed cells. The blocking buffer used were 5% Fetal Bovine Serum (FBS, ThermoFIsher Scientific, 10270106) and Li-cor Intercept (PBS) Blocking Buffer (Li-cor, 927-70001). The primary antibody used was mouse anti-p62 primary antibody (Novus Biologicals, H00008878-M01). The secondary antibodies used were goat anti-mouse Alexa Fluor Plus 488 secondary antibody (Invitrogen, GOXMS) and goat anti-mouse Alexa Fluor 488 secondary antibody (Invitrogen, A-11029). The DAPI dyes used were DAPI dye (Invitrogen, 62248) and DAPI dye (Invitrogen, D1306).\nFor the EVOS M7000 System, cells were imaged on the EVOS M7000 microscope using a 20× air objective (Nikon, N.A 0.45). DAPI and p62 channels were illuminated with LED light cubes using integrated hard-coated filter sets for DAPI (357/447 nm) and GFP (470/525 nm) respectively. Images were analysed for p62 puncta count on the Celeste 6.0 software.\nFor the Operetta CLS System, cells were imaged on the Operetta CLS using a 63× water objective on the DAPI and Alexa 488 channels. Images were analysed for p62 puncta count on the Harmony 5.1 software.\nHeLa cells were treated with compounds for 24 hours to evaluate the effect of these compounds on p62 puncta activity. The resulting changes in levels of p62 puncta were assessed by imaging, either on the EVOS M7000 or Operetta CLS systems as described in experimental procedures. The fold change of p62 puncta levels induced by compound treatment relative to vehicle control (DMSO) was determined and summarized in Table 10.", "values": [{"smiles": "CC(C)(C)OC(=O)N1CC(OCCNCc2cc(F)cc3c2ccn3Cc2ccc(Cl)cc2)C1", "note": "[Compound 167]", "p62 puncta (fold change of p62 puncta levels)": "++ (>2-fold change in p62 puncta levels relative to DMSO control)"}, {"smiles": "CC(C)(C)OC(=O)CCCOCCNCc1cc(F)cc2c1ccn2Cc1ccc(Cl)cc1", "note": "[Compound 154]", "p62 puncta (fold change of p62 puncta levels)": "++ (>2-fold change in p62 puncta levels relative to DMSO control)"}, {"smiles": "C#CCCOCCOCCOCCNCc1cc(F)cc2c1ccn2Cc1ccc(Cl)cc1", "note": "[Compound 87, 2-(2-(2-(but-3-yn-1-yloxy)ethoxy)ethoxy)-N-((1-(4-chlorobenzyl)-6-fluoro-1H-indol-4-yl)methyl)ethan-1-amine]", "p62 puncta (fold change of p62 puncta levels)": "++ (>2-fold change in p62 puncta levels relative to DMSO control)"}, {"smiles": "COC1CCN(CCOCCNCc2cc(F)cc3c2ccn3Cc2ccc(Cl)cc2)CC1", "note": "[Compound 129]", "p62 puncta (fold change of p62 puncta levels)": "++ (>2-fold change in p62 puncta levels relative to DMSO control)"}, {"smiles": "COC(=O)c1ccc(OCCOCCNCc2cc(F)cc3c2ccn3Cc2ccc(Cl)cc2)cc1", "note": "[Compound 168]", "p62 puncta (fold change of p62 puncta levels)": "++ (>2-fold change in p62 puncta levels relative to DMSO control)"}, {"smiles": "C#CCCN1CCC(OCCNCc2cc(F)cc3c2ccn3Cc2ccc(Cl)cc2)CC1", "note": "[Compound 119]", "p62 puncta (fold change of p62 puncta levels)": "++ (>2-fold change in p62 puncta levels relative to DMSO control)"}, {"smiles": "COCCN1CCC(OCCNCc2cc(F)cc3c2ccn3Cc2ccc(Cl)cc2)CC1", "note": "[Compound 130]", "p62 puncta (fold change of p62 puncta levels)": "++ (>2-fold change in p62 puncta levels relative to DMSO control)"}, {"smiles": "C#Cc1ccc(COCCNCc2cc(F)cc3c2ccn3Cc2ccc(Cl)cc2)cc1", "note": "[Compound 173]", "p62 puncta (fold change of p62 puncta levels)": "++ (>2-fold change in p62 puncta levels relative to DMSO control)"}, {"smiles": "CC(C)(C)OC(=O)N1CCC(COCCOCCNCc2cc(F)cc3c2ccn3Cc2ccc(Cl)cc2)CC1", "note": "[Compound 174]", "p62 puncta (fold change of p62 puncta levels)": "++ (>2-fold change in p62 puncta levels relative to DMSO control)"}, {"smiles": "CC(C)(C)OC(=O)NC1CCN(CCOCCNCc2cc(F)cc3c2ccn3Cc2ccc(Cl)cc2)CC1", "note": "[Compound 127]", "p62 puncta (fold change of p62 puncta levels)": "++ (>2-fold change in p62 puncta levels relative to DMSO control)"}, {"smiles": "C#CCCOCCOCCNCC(O)COc1cccc2c1ccn2Cc1ccccc1", "note": "(stereo not drawn) [Compound 117]", "p62 puncta (fold change of p62 puncta levels)": "++ (>2-fold change in p62 puncta levels relative to DMSO control)"}, {"smiles": "C#CCCCCCOCCNCc1cc(F)cc2c1ccn2Cc1ccc(Cl)cc1", "note": "[Compound 148]", "p62 puncta (fold change of p62 puncta levels)": "+ (<2-fold change in p62 puncta levels relative to DMSO control)"}, {"smiles": "CC(C)(C)OC(=O)NC1(COCCNCc2cc(F)cc3c2ccn3Cc2ccc(Cl)cc2)CC1", "note": "[Compound 165]", "p62 puncta (fold change of p62 puncta levels)": "++ (>2-fold change in p62 puncta levels relative to DMSO control)"}, {"smiles": "CC(C)(C)OC(=O)CCCCOCCNCc1cc(F)cc2c1ccn2Cc1ccc(Cl)cc1", "note": "[Compound 147]", "p62 puncta (fold change of p62 puncta levels)": "+ (<2-fold change in p62 puncta levels relative to DMSO control)"}, {"smiles": "C#CCOCCOCCOCCNCc1cc(F)cc2c1ccn2Cc1ccc(Cl)cc1", "note": "[Compound 137]", "p62 puncta (fold change of p62 puncta levels)": "++ (>2-fold change in p62 puncta levels relative to DMSO control)"}, {"smiles": "CC(C)(C)OC(=O)CCOCCOCCNCc1cc(F)cc2c1ccn2Cc1ccc(Cl)cc1", "note": "[Compound 138]", "p62 puncta (fold change of p62 puncta levels)": "++ (>2-fold change in p62 puncta levels relative to DMSO control)"}, {"smiles": "COC(=O)CCOCCOCCNCc1cc(F)cc2c1ccn2Cc1ccc(Cl)cc1", "note": "[Compound 88]", "p62 puncta (fold change of p62 puncta levels)": "+ (<2-fold change in p62 puncta levels relative to DMSO control)"}, {"smiles": "C#CCCOCCOCCOCCNCc1cc(F)cc2c1ccn2Cc1ccc(F)cc1", "note": "[Compound 123]", "p62 puncta (fold change of p62 puncta levels)": "++ (>2-fold change in p62 puncta levels relative to DMSO control)"}, {"smiles": "COC(=O)c1cccc(COCCNCc2cc(F)cc3c2ccn3Cc2ccc(Cl)cc2)c1", "note": "[Compound 145]", "p62 puncta (fold change of p62 puncta levels)": "+ (<2-fold change in p62 puncta levels relative to DMSO control)"}, {"smiles": "CC(C)(C)OC(=O)N1CCC(COCCNCc2cc(F)cc3c2ccn3Cc2ccc(Cl)cc2)CC1", "note": "[Compound 134]", "p62 puncta (fold change of p62 puncta levels)": "++ (>2-fold change in p62 puncta levels relative to DMSO control)"}, {"smiles": "CNCCOCCOCCOCCNCc1cc(F)cc2c1ccn2Cc1ccc(Cl)cc1", "note": "[Compound 90]", "p62 puncta (fold change of p62 puncta levels)": "++ (>2-fold change in p62 puncta levels relative to DMSO control)"}, {"smiles": "CC(C)(C)OC(=O)N1CCN(CCOCCNCc2cc(F)cc3c2ccn3Cc2ccc(Cl)cc2)CC1", "note": "[Compound 156]", "p62 puncta (fold change of p62 puncta levels)": "++ (>2-fold change in p62 puncta levels relative to DMSO control)"}, {"smiles": "Fc1cc(CNCCOCCCCl)c2ccn(Cc3ccc(Cl)cc3)c2c1", "note": "[Compound 146]", "p62 puncta (fold change of p62 puncta levels)": "++ (>2-fold change in p62 puncta levels relative to DMSO control)"}, {"smiles": "CNCCOCc1cc(F)cc2c1ccn2Cc1ccc(Cl)cc1", "note": "[Compound 178]", "p62 puncta (fold change of p62 puncta levels)": "++ (>2-fold change in p62 puncta levels relative to DMSO control)"}, {"smiles": "CC(C)(C)OC(=O)NCCCCCCOCCNCc1cc(F)cc2c1ccn2Cc1ccc(Cl)cc1", "note": "[Compound 159]", "p62 puncta (fold change of p62 puncta levels)": "++ (>2-fold change in p62 puncta levels relative to DMSO control)"}, {"smiles": "C#CCCCCCCOCCNCc1cc(F)cc2c1ccn2Cc1ccc(Cl)cc1", "note": "[Compound 151]", "p62 puncta (fold change of p62 puncta levels)": "+ (<2-fold change in p62 puncta levels relative to DMSO control)"}, {"smiles": "CC(C)(C)OC(=O)N[C@H]1CC[C@@H](COCCNCc2cc(F)cc3c2ccn3Cc2ccc(Cl)cc2)CC1", "note": "[Compound 176]", "p62 puncta (fold change of p62 puncta levels)": "++ (>2-fold change in p62 puncta levels relative to DMSO control)"}, {"smiles": "CC(C)(C)OC(=O)N1CCC(CCOCCNCc2cc(F)cc3c2ccn3Cc2ccc(Cl)cc2)CC1", "note": "[Compound 161]", "p62 puncta (fold change of p62 puncta levels)": "++ (>2-fold change in p62 puncta levels relative to DMSO control)"}, {"smiles": "C#CCCOCCNCc1cc(F)cc2c1ccn2Cc1ccc(Cl)cc1", "note": "[Compound 143]", "p62 puncta (fold change of p62 puncta levels)": "++ (>2-fold change in p62 puncta levels relative to DMSO control)"}, {"smiles": "OCCNCc1cncc2c1ccn2Cc1ccc(Cl)cc1", "note": "[Compound 110, 2-(((1-(4-chlorobenzyl)-1H-pyrrolo[2,3-c]pyridin-4-yl)methyl)amino)ethan-1-ol]", "p62 puncta (fold change of p62 puncta levels)": "++ (>2-fold change in p62 puncta levels relative to DMSO control)"}, {"smiles": "CC(C)(C)OC(=O)NCCN1CCN(CCOCCNCc2cc(F)cc3c2ccn3Cc2ccc(Cl)cc2)CC1", "note": "[Compound 128]", "p62 puncta (fold change of p62 puncta levels)": "++ (>2-fold change in p62 puncta levels relative to DMSO control)"}, {"smiles": "CC(C)(C)OC(=O)NCCCCCCCCOCCNCc1cc(F)cc2c1ccn2Cc1ccc(Cl)cc1", "note": "[Compound 158]", "p62 puncta (fold change of p62 puncta levels)": "++ (>2-fold change in p62 puncta levels relative to DMSO control)"}, {"smiles": "CC(C)(C)OC(=O)NCCOCCOCCOCCNCc1cc(F)cc2c1ccn2Cc1ccc(Cl)cc1", "note": "[Compound 136]", "p62 puncta (fold change of p62 puncta levels)": "++ (>2-fold change in p62 puncta levels relative to DMSO control)"}]}]}
